Results taken from US20240368605A1, “USE OF SPLICE SWITCHING OLIGONUCLEOTIDES FOR EXON SKIPPING-MEDIATED KNOCKDOWN OF PIM2” (INSTITUT NATIONAL DE LA SANTÉ ET DE LA RECHERCHE MÉDICALE, priority 2021, published 2024).

Assays:
p21^Cip1/WAF1 [1] = assay: p21^Cip1/WAF1 protein expression in XG21 cells; format: cell-based, human; settings: XG21 cells treated conjointly by MG-132 and PIMi
Text: (§1) Like p27^Kip1, p21^Cip1/WAF1 is a tight-binding inhibitor of CDKs and inhibits cell cycle entry into S phase (Elledge et al., 1996). Plasmablast commitment leads to a significant increase of the CDKN1A gene, which encodes p21^Cip1/WAF1, and this independently to the expression of TP53 (data not shown). […] We then wondered whether PIM2 could modify p21^Cip1/WAF1 expression. […] To address this scenario, we developed endogenous protein immunoprecipitation (IP) and found in generated PBs and XG21 cell line as well that PIM2, p21^Cip1/WAF1 and HSP90β form a cytoplasmic multiprotein complex (data not shown).

CDC25A = CDC25A protein in PBs by western blot; format: cell-based, human
Text: (§2) Since PIM2 acts at multiple cellular levels, we wanted to investigate how this kinase impacts this step of the differentiation. […] To explore this hypothesis, we investigated the G1/S transition of the cell cycle by using the multiple myeloma-derived cell line XG21 which presents an IL-6/STAT3-dependent PIM2 expression and proliferation (data not shown). To this end, we established a double thymidine block to arrest cells in G1-phase, and then released thymidine before subsequent cell cycle analysis. […] In presence of PIM2 blockade regardless of the type of inhibition, cells remained largely arrested in G1 phase until 16 h before starting to die (data not shown). The transition of G1 to S phase of the cell cycle requires the phosphatase CDC25A. We found a significant increase of CDC25A gene expression in PBs compared to CD23+ aBC and chemical inhibition of the phosphatase led to a dramatic decrease of the number of PBs in S phase (data not shown). We then wondered whether PIM2 has an effect on CDC25A as described for PIM1 which increased the catalytic activity after its binding to the phosphatase (Mochizuki et al., 1999). By western blot we detected CDC25A protein in PBs which disappeared in presence of PIMi (data not shown). PIM2 blockade led also to the downregulation of CDC25A and MKI67 gene expression (data not shown).

p21^Cip1/WAF1 [2] = assay: CDKN1A gene and p21^Cip1/WAF1 protein expression in PBs; format: cell-based, human; settings: PBs treated conjointly by MG-132 and PIMi
Text: as §1

PBs [3] = assay: Mitochondria/Caspase 3-driven apoptosis and viability of PBs; format: cell-based, human
Text: Mitochondrial-driven cell death is activated once the mitochondria lose the ability to maintain the inner membrane potential, resulting in the release of proapoptotic proteins into the cytosol. Commitment towards PBs is sustained by an extensive reconfiguration of the epigenetic landscape and of gene expression patterns, both showing that the most prominent function involves cell death and survival (Caron et al., 2015). […] We then investigated the different cell subsets generated through the differentiation model at the protein level for factors involved in apoptosis triggered by mitochondria (data not shown). The PBs compared to all other subsets increased the expression of pBAD and XIAP, both proteins counteract the apoptotic pathway and were described in PIM2-induced survival effect (data not shown) (Fox, 2003; Macdonald et al., 2006; Yan et al., 2003). In accordance with this finding and despite a strong increase in procaspase 3 protein (32 kDa size), PBs decrease the autocatalytic activity of Caspase 3 and therefore the production of p19/p17 apoptosis executors as highlighted by the low levels of cleaved PARP (data not shown) (Ponder and Boise, 2019). […] In addition, we found in P2/CD23+ cells a complete degradation of PARP which illustrate the fact that the apoptosis process is consubstantially associated with the B cell terminal differentiation if cells are not otherwise protected (data not shown).
We then inhibited PIM2 which led to an intense activation of Caspase 3 and a decrease of viability of PBs. The latter was rescued by the Caspase 3 inhibitor Q-DEVD-OPH (data not shown).
(§3) The differentiation of immature monocytes is associated with a relocalization of nuclear p21^Cip1/WAF1 to the cytoplasm where the protein participates to apoptosis blockage (Asada, 1999). In addition, Suzuki et al. ascribed the formation of a Procaspase 3/p21^Cip1/WAF1 complex in the context of resistance to Fas-mediated cell death owing to the phosphorylation of p21 by protein kinase A (Suzuki et al., 2000). We wanted therefore to explore whether p21^Cip1/WAF1 may bind Procaspase 3 and developed to this end a FRET approach which detected a signal of energy transfer compatible with such physical interaction. […] We then confirmed the binding between p21^Cip1/WAF1 and Caspase 3 in XG21 cells and in PBs by IP (data not shown). Finally, to confirm the anti-apoptotic role of cytoplasmic p21^Cip1/WAF1 in PBs we inhibited p21^Cip1/WAF1 expression by a siRNA targeting CDKN1A in in vitro D4 B cells (data not shown) and found an activation of the execution of apoptosis characterized by the detection of the p17-fragment cleavage of caspase 3 in parallel to the cleavage of PARP (data not shown) and similar results were found in XG21 cells (data not shown). […] The role of PIM2 is to stabilize p21^Cip1/WAF1 protein in the cytoplasm allowing therefore the formation a multiprotein complex which inhibits Caspase 3 full activation (data not shown).

MM = assay: Combinations of increasing drug-concentration of PIM inhibitor and MCL1 inhibitor; format: cell-based; settings: increasing concentrations of both drugs
[4] = tested on: p21^Cip1/WAF1/Procaspase 3 complex; assay: FRET between p21^Cip1/WAF1 and Procaspase 3; format: cell-based; settings: added to the cell culture
Text: as §3

ePCs = assay: Apoptosis markers in early plasma cells (ePCs) by western blot; format: cell-based, human
Text: Plasma cell maturation is a continuum that spans from PBs to fully mature PCs corresponding to long-lived PCs such as those residing in the bone marrow (BM) PC niche where their survival depends on various extrinsic factors. […] We then explored PIM2 expression at the protein level in CD138^+ or BCMA^+ PCs on BM biopsies from patients free from malignant hemopathies obtained from the Pathology department of our institution (F. Llamas-Gutierrez). Single staining was firstly tested by chromogenic immunohistochemistry (CIH) or immunofluorescence (IF) on paraffin-embedded tissue sections followed by multiple staining by IF. Both, CD138 and BCMA staining allowed to identify PCs with, in some areas, high number of positive cells that possibly were close from CD41-positive megakaryocytes and enriched for IL-6 expression (data not shown). In addition, all observed BM PCs expressed PIM2 with a strong intensity (data not shown). To determine the regulation and functional contribution of PIM2 in mature PCs, we produced CD38^hi/CD138^+ PCs by leaving D7 to D10 generated PBs in culture media containing IL-2, IL-10, IL-6 and IFN-alpha (data not shown). Under this condition, the number of CD138^+ cells increased progressively while the number of cells in S-phase of the cell cycle decreased gradually with, respectively, 60.3±8.1% and 3.5±0.3% at D10 (data not shown). In parallel, cells decreased and increased, respectively, the expression of CDC25A and CDKN1B with for the latter, p27^Kip1 protein exclusively detectable in the nucleus at D10 as expected for fully differentiated cells arrested in the cell cycle (data not shown). […] In addition, in these cells, compared to PBs, we observed an increase of PIM2 gene expression as well as its protein level (data not shown).
We then investigated the other factors described above at the protein levels and detected by western blot in ePCs compared to PBs—and besides p27^Kip1 and PIM2—a significant elevation of Caspase 3 and p21^Cip1/WAF1 protein expression (data not shown).

PBs [5] = assay: Number of PBs in S-phase of the cell cycle; format: cell-based, human
Text: as §2

[6] = tested on: activated B cells diverted from the PB commitment; assay: Apoptosis of activated B cells diverted from the PB commitment at D6; format: cell-based, human; settings: D6, original in vitro model
Text: Mitochondrial-driven cell death is activated once the mitochondria lose the ability to maintain the inner membrane potential, resulting in the release of proapoptotic proteins into the cytosol. Commitment towards PBs is sustained by an extensive reconfiguration of the epigenetic landscape and of gene expression patterns, both showing that the most prominent function involves cell death and survival (Caron et al., 2015). […] We then investigated the different cell subsets generated through the differentiation model at the protein level for factors involved in apoptosis triggered by mitochondria (data not shown). The PBs compared to all other subsets increased the expression of pBAD and XIAP, both proteins counteract the apoptotic pathway and were described in PIM2-induced survival effect (data not shown) (Fox, 2003; Macdonald et al., 2006; Yan et al., 2003). In accordance with this finding and despite a strong increase in procaspase 3 protein (32 kDa size), PBs decrease the autocatalytic activity of Caspase 3 and therefore the production of p19/p17 apoptosis executors as highlighted by the low levels of cleaved PARP (data not shown) (Ponder and Boise, 2019). […]

XG21 = assay: Caspase 3 activation in XG21; format: cell-based, human
Text: as §3

MM cell lines = assay: PIM2 protein expression and drug effects in MM cell lines; format: cell-based, human; settings: western blot, after proteasome inhibition
Text: Using data of the Dependency Map (DepMap) portal (https://depmap.org/portal/), we evaluated mRNA expression of PIM2 in silico across >700 different malignant cell lines, including 20 MM cell lines. […] This was specific to PIM2, as PIM1 expression is not overexpress in MM cell lines (data not shown). We confirm the high expression of PIM2 protein in eight MM lines, which correlates well with RNA expression, noting however a large heterogeneity of expression (data not shown) Also, using CRISPR screening of DepMap data, dependency scores of PIM2 underline their specific importance for MM cell survival compared to all cell lines tested, and as compared to PIM1 data not shown). To evaluate potential correlations between PIM2 expression and clinicals outcomes, we analyzed TT2 cohort of the university of Arkansas and within the myeloma patient molecular subgroups. […] Our analysis of the CoMMpass cohort also as PIM2 expression above the cutoff (determined by MaxStat method) in the large dataset correlated with shorter overall survival (P=0.000573) (data not shown). […] These last result fit well with the fact that PIM2 protein expression increase after proteasome inhibition with drug as carfilzomib as show by western blot in MM cell lines (data not shown), leading to an increase of their prosurvival activity as shown described (Adam et al., 2015).

With `N[C@@H]1CCCN(c2c(/C=C3\SC(=O)NC3=O)cccc2-c2ccccc2)C1` [PIMi, AZD1208] as the compound, how does the “p21^Cip1/WAF1 expression” value (p21^Cip1/WAF1 [1]) read?
Its value is “maintained their p21^Cip1/WAF1 expression but in a poly-ubiquitinylated form”.

What about the “CDC25A protein in PBs” value (CDC25A) of the same compound?
Its value is “disappeared”.

And the “p21^Cip1/WAF1 expression” value (p21^Cip1/WAF1 [2])?
The value was “maintained their p21^Cip1/WAF1 expression but in a poly-ubiquitinylated form”.

And the “cleaved PARP protein” value (PBs [3]; PBs)?
The value was “production of cleaved PARP protein”.

What about the mitochondrial depolarization (PBs [3]; PBs) of the same compound?
The mitochondrial depolarization was “strong mitochondrial depolarization”.

And the “pBAD and XIAP protein” value (PBs [3]; PBs)?
Its value is “decrease of pBAD and XIAP”.

What about the “synergy of the combination AZD1208 and AZD5991” value (MM) of the same compound?
The value was “hard synergy”.

What about the “FRET signal of energy transfer p21^Cip1/WAF1 / Procaspase 3” value [4] of the same compound?
The value was “abolished the signal”.

And the “Caspase 3 activation” value (ePCs)?
The value was “activation of Caspase 3 with production of the catalytic active p17 fragment”.

And the XIAP protein (ePCs)?
The XIAP protein was “decrease of XIAP protein”.

What about the “cleaved-Caspase 9 fragment” value (ePCs) of the same compound?
The value was “increase of cleaved-Caspase 9 fragment”.

And the “p21^Cip1/WAF1 expression” value (ePCs)?
Its value is “decrease of p21^Cip1/WAF1 expression”.

And the “number of PBs in S-phase” value (PBs [5])?
The value was “decreased drastically, in a dose-dependent manner”.

For `CC(C)[C@H](NC(=O)c1ccc2ccccc2n1)C(=O)N[C@@H](CC(=O)O)C(=O)COc1c(F)cccc1F` [QVD-OPH], which rescue from apoptosis [6] is on record?
The rescue from apoptosis was “rescued from apoptosis”.

What does the source list for `O=C(Nc1ccc(Cl)c(C(F)(F)F)c1)NC1CCC(Oc2ccc(C(F)(F)F)cn2)CC1` (centres unmarked) [UC2288]?
Caspase 3 activation (XG21): dose-dependent increase of Caspase 3 activation; Caspase 3 activation (PBs [3]; PBs): dose-dependent increase of Caspase 3 activation; apoptosis induction (PBs [3]; by inhibiting p21^Cip1/WAF1 protein expression): induced a Caspase 3-mediated apoptosis

How did the PIM2 protein expression (MM cell lines) turn out when `CC(C)C[C@H](NC(=O)[C@H](CCc1ccccc1)NC(=O)CN1CCOCC1)C(=O)N[C@@H](Cc1ccccc1)C(=O)N[C@@H](CC(C)C)C(=O)[C@@]1(C)CO1` [carfilzomib] was run?
The PIM2 protein expression was “increase”.

What does the source list for Q-DEVD-OPH?
viability of PBs after PIM2 inhibition (PBs [3]; Caspase 3 inhibitor added to PIM2-inhibited PBs): rescued; cell viability after UC2288 (PBs [3]; Caspase 3 inhibitor added to UC2288-treated cells): restores cell viability
